Data on 40 molecules can be found in patent US7671085B2, “Non-steroidal farnesoid X receptor modulators and methods for the use thereof” (The Salk Institute for Biological Studies, priority 2002, dated 2010).

The experiment concerns the target T1, FXR (Homo sapiens, UniProt Q96RI1).
T1 construct: using a full length FXR on a natural response element; expressed in transfected cells
T1 sequence (Q96RI1 1-486): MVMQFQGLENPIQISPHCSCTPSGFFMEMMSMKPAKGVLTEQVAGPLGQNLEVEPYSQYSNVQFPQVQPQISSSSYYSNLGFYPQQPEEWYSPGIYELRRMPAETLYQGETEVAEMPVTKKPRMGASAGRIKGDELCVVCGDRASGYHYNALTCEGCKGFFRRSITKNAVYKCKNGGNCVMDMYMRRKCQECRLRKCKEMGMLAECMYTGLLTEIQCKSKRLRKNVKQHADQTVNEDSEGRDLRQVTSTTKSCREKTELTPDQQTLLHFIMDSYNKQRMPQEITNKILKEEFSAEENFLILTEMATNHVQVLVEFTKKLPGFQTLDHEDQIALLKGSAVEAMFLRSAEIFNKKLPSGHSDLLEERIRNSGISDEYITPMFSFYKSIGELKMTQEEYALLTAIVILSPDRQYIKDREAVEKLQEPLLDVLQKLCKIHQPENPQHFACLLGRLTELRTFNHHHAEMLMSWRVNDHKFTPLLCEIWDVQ
The experiment in a line: cell-based FXR transcription assay, FXR responsive promoter linked to luciferase reporter. To be noted: for RE^a / EC50: cell-based FXR reporter assay; for RE^a: footnote a not given; for FXR activation, in words: cell-based reporter assay, SAR discussion; for EC50: determined with Prism 3.0. From the text:
In addition to ensuring that only cell permeable compounds were selected for further optimization, this approach allows for the detection of FXR activation in a natural system (i.e., correct folding of the protein and in the presence of a complete compliment of co-activators and co-repressors).
The feasibility of creating high throughput screens (HTS) for ORs was explored using FXR as a candidate orphan receptor (OR) with a known activator, chenodeoxycholic acid (CDCA) as a ligand. The screen is based on the co-transfection of a full-length receptor with the reporter vector containing a natural hormone response element under a minimal eukaryotic promoter. […] Using this 384-well format, the high throughput screening (HTS) approach to FXR as a candidate OR was employed. […] A central question in the feasibility studies is whether this library is suitable for screening for nuclear receptor ligands. Samples of this library were first reformatted into a 384-well format and then subjected to the FXR cell-based assays described above and assessed for FXR-mediated transcriptional activity. Cells were exposed to approximately 10 μM of sample for 18 hrs prior to washing and luciferase analysis.
EC50 values were determined with Prism 3.0 software via the activity of the subject compound in the previously described cell based assay.
Background: Reporter assays use an easily measured gene product as a stand-in for the process of interest.

What is called EC50 is the midpoint of the concentration-response curve.

Turning to `CC(C)(C)OC(=O)C=Cc1ccc(CN(C(=O)C2CCCCC2)c2cccc(C=CC(=O)OC(C)(C)C)c2)cc1` [Compound 134], the “RE^a” value was found to be 1.06 and the “FXR activation, in words” value is “marked decline in potency”.

Turning to `CC(C)(C)OC(=O)C=Cc1ccc(CN(C(=O)C2CCCCC2)c2cccc(C=CC(N)=O)c2)cc1` [Compound 135], the “RE^a” value is recorded as 0.50 and the “FXR activation, in words” value is “marked decline in potency”.

For `COCC=Cc1cccc(N(Cc2ccc(C=CC(=O)OC(C)(C)C)cc2)C(=O)C2CCCCC2)c1` [Compound 136], the “RE^a” value came out at 1.68.

For `CCOCC=Cc1cccc(N(Cc2ccc(C=CC(=O)OC(C)(C)C)cc2)C(=O)C2CCCCC2)c1` [Compound 137], the “RE^a” value worked out at 1.74.

For the molecule `CC(C)(C)OC(=O)C=Cc1ccc(CN(C(=O)C2CCCCC2)c2cccc(C=CCOc3ccccc3)c2)cc1` [Compound 138], the “RE^a” value stood at 0.45.

For the molecule `COC(=O)CCc1cccc(N(Cc2ccc(/C=C/C(=O)OC(C)(C)C)cc2)C(=O)C2CCCCC2)c1` [Compound 139], the “RE^a” value is “RE^a = 1.38” and the “FXR activation, in words” value is reported as “only a two-fold decrease in potency”.

Regarding `COC(=O)C=Cc1cccc(N(Cc2ccc(C=CC(=O)OC(C)(C)C)cc2)C(=O)C2CC2)c1` [Compound 140], the “RE^a” value is on record as 1.68.

Regarding `COC(=O)C=Cc1cccc(N(Cc2ccc(C=CC(=O)OC(C)(C)C)cc2)C(=O)C2CCC2)c1` [Compound 141], the “RE^a” value worked out at 1.84 and the “FXR activation, in words” value is “excellent activity”.

`COC(=O)C=Cc1cccc(N(Cc2ccc(C=CC(=O)OC(C)(C)C)cc2)C(=O)C2CCCC2)c1` [Compound 142]: the “RE^a” value is recorded as 2.16 and the “FXR activation, in words” value is “excellent activity”.

As for `COC(=O)/C=C/c1cccc(N(Cc2ccc(/C=C/C(=O)OC(C)(C)C)cc2)C(=O)c2ccccc2)c1` [Compound 143], the “RE^a” value is given as 1.96.

For the molecule `COC(=O)/C=C/c1cccc(N(Cc2ccc(/C=C/C(=O)OC(C)(C)C)cc2)C(=O)c2ccco2)c1` [Compound 144], the “RE^a” value is on record as 1.93.

On to `COC(=O)/C=C/c1cccc(N(Cc2ccc(/C=C/C(=O)OC(C)(C)C)cc2)C(=O)NC(C)C)c1` [Compound 145], for which the “RE^a” value was 1.96.

Turning to `COC(=O)C=Cc1cccc(N(Cc2ccc(C=CC(=O)OC(C)(C)C)cc2)C(=O)NCc2ccccc2)c1` [Compound 146], the “RE^a” value was 0.27 and the “FXR activation, in words” value is on record as “only marginal efficacy”.

Regarding `COC(=O)C=Cc1cccc(N(C)C(=O)C2CCCCC2)c1` [Compound 147], the “RE^a” value turned out to be 0.09.

As to `COC(=O)C=Cc1cccc(N(Cc2ccc(C(C)(C)C)cc2)C(=O)C2CCCCC2)c1` [Compound 148], the “RE^a” value amounted to 0.15.

As for `COC(=O)C=Cc1ccc(CN(C(=O)C2CCCCC2)c2cccc(C=CC(=O)OC)c2)cc1` [Compound 150], the “RE^a” value is recorded as 0.87.

In the case of `CCOC(=O)C=Cc1ccc(CN(C(=O)C2CCCCC2)c2cccc(C=CC(=O)OC)c2)cc1` [Compound 151], the “RE^a” value came out at 1.14.

As for `COC(=O)C=Cc1cccc(N(Cc2ccc(C=CC(=O)OC(C)C)cc2)C(=O)C2CCCCC2)c1` [Compound 152], the “RE^a” value was determined as 1.97.

As to `COC(=O)C=Cc1cccc(N(Cc2ccc(C=CC(=O)OCc3ccccc3)cc2)C(=O)C2CCCCC2)c1` [Compound 153], the “RE^a” value came to 0.23.

On to `COC(=O)C=Cc1cccc(N(Cc2ccc(C=CC(=O)N(C)C)cc2)C(=O)C2CCCCC2)c1` [Compound 154], for which the “RE^a” value amounted to 0.66.

In the case of `COC(=O)C=Cc1cccc(N(Cc2ccc(C=CC(=O)NC(C)(C)C)cc2)C(=O)C2CCCCC2)c1` [Compound 155], the EC50 is more than 1000 nM and the “RE^a” value is 1.65.

For `COCC=Cc1ccc(CN(C(=O)C2CCCCC2)c2cccc(C=CC(=O)OC)c2)cc1` [Compound 156], the “RE^a” value came to 1.63.

`CCOCC=Cc1ccc(CN(C(=O)C2CCCCC2)c2cccc(C=CC(=O)OC)c2)cc1` [Compound 157]: the “RE^a” value is 2.06.

Consider `COC(=O)C=Cc1cccc(N(Cc2ccc(C=CCOc3ccccc3)cc2)C(=O)C2CCCCC2)c1` [Compound 158], for which the “RE^a” value is on record as 0.64 and the “FXR activation, in words” value is “only micromolar activity”.

As for `COC(=O)C=Cc1cccc(N(Cc2ccc(CCC(=O)OC(C)(C)C)cc2)C(=O)C2CCCCC2)c1` [Compound 159], the “RE^a” value came to 1.56.

Regarding `CC(C)(C)OC(=O)/C=C/c1cccc(N(Cc2ccc(CCC(=O)OC(C)(C)C)cc2)C(=O)C2CCCCC2)c1` [Compound 160], the “RE^a” value is 0.64.

As for `COC(=O)C=Cc1cccc(N(Cc2ccc(C=CC(=O)OC(C)(C)C)cc2O)C(=O)C2CCCCC2)c1` [Compound 161], the “RE^a” value stood at 0.12.

As to `COC(=O)C=Cc1cccc(N(Cc2ccc(C=CC(=O)OC(C)(C)C)cc2OC)C(=O)C2CCCCC2)c1` [Compound 162], the “RE^a” value is reported as 0.14.

Consider `COC(=O)C=Cc1cccc(N(Cc2ccc(C=CC(=O)OC(C)(C)C)cc2OCc2ccccc2)C(=O)C2CCCCC2)c1` [Compound 163], for which the “RE^a” value was found to be 0.38.

With `COC(=O)C=Cc1cccc(N(Cc2ccc(C=CC(=O)OC(C)(C)C)cc2OC(C)=O)C(=O)C2CCCCC2)c1` [Compound 164], the “RE^a” value is given as 0.16.

Take `COC(=O)C=Cc1cccc(N(Cc2ccc(C=CC(=O)OC(C)(C)C)cc2OC(=O)c2ccccc2)C(=O)C2CCCCC2)c1` [Compound 165]: the “RE^a” value came out at 0.16.

For the molecule `COC(=O)C=Cc1cccc(N(Cc2ccc(C=CC(=O)OC(C)(C)C)cc2OS(C)(=O)=O)C(=O)C2CCCCC2)c1` [Compound 166], the “RE^a” value was determined as 0.18.

`CCOC(=O)COc1cc(C=CC(=O)OC(C)(C)C)ccc1CN(C(=O)C1CCCCC1)c1cccc(C=CC(=O)OC)c1` [Compound 167]: the “RE^a” value is recorded as 0.18.

Turning to `COC(=O)/C=C/c1cccc(N(Cc2ccc(/C=C/c3ccc(C)cc3)cc2)C(=O)C2CCCCC2)c1` [Compound 174], the “RE^a” value is listed as 0.83 and the “FXR activation, in words” value is reported as “among the least active”.

For `COC(=O)/C=C/c1cccc(N(Cc2ccc(/C=C/c3ccc(C)cc3)cc2)C(=O)C(C)C)c1` [Compound 175], a half-maximal effect (EC50) was put at 1410 nM and the “RE^a” value is 0.37.

For the molecule `COC(=O)/C=C/c1cccc(N(Cc2ccc(/C=C/c3ccc(C)cc3)cc2)C(=O)NC(C)C)c1` [Compound 176], it took 3570 nM to reach a half-maximal effect (EC50) and the “RE^a” value is 0.10.

`COC(=O)/C=C/c1cccc(N(Cc2ccc(/C=C/c3c(Cl)cccc3Cl)cc2)C(=O)C2CCCCC2)c1` [Compound 177]: the “RE^a” value was found to be 0.12 and the “FXR activation, in words” value is listed as “excellent activity”.

Consider `COC(=O)/C=C/c1cccc(N(Cc2ccc(/C=C/c3c(Cl)cccc3Cl)cc2)C(=O)C(C)C)c1` [Compound 178], for which the “RE^a” value is recorded as 0.14.

On to `COC(=O)/C=C/c1cccc(N(Cc2ccc(/C=C/c3c(Cl)cccc3Cl)cc2)C(=O)NC(C)C)c1` [Compound 179], for which it took 216 nM to reach a half-maximal effect (EC50) and the “RE^a” value is 0.15.

Consider `COC(=O)C=Cc1cccc(N(Cc2ccc(C=Cc3cccc(Cl)c3)cc2)C(=O)C2CCCCC2)c1` [Compound 180], for which the “RE^a” value was found to be 1.41 and the “FXR activation, in words” value is reported as “excellent activity”.
